Consider 2 compounds from patent US7868185B2, “Shp-2 inhibitors and pharmaceutical compositions comprising them” (Max-Delbruck-Centrum fur Molekulare Medizin, priority 2005, dated 2011).

One assay deals with HGF induced scattering. The settings on record: in vitro; cited from earlier work.
The conditions of assay [1]: earlier experiments; cited from earlier work.
For another assay, the target named is Met (Homo sapiens, UniProt P08581). To be noted: in vitro; cited from earlier work.
The subject of assay [2] is phosphorylation of MAP kinases Erk1 and Erk2. The assay can be described thus: HGF/SF phosphorylation assay (MDCK). It is filed as cell-based, canine. To be noted: MDCK cells, HGF/SF stimulation, 5, 10, 20 μM, dose dependant. How it is done: MDCK cells are seeded at 0.15×10E6 cells/ml (1 ml/well) in a 12 well microtiter plate in DMEM/10% FBS and incubated over night at 37° C./5% CO2. Medium is exchanged against DMEM/1% FBS plus 5, 10 or 20 μM (final concentration) compound, and the cells are incubated for 16 h at 37° C./5% CO2. Medium is exchanged against DMEM (without serum) plus 5, 10 or 20 μM compound (final DMSO concentration less than 1%), and the cells are incubated for 2 h at 37° C./5% CO2. Medium is exchanged against DMEM (without serum) plus 5, 10 or 20 μM compound (final DMSO concentration less than 1%) plus 10 ng/ml HGF/SF, and the cells are incubated for 6 h at 37° C./5% CO2. […] Proteins on the blot are analyzed by antibodies against p42/p44 MAP kinase (Erk1/Erk2) (Cell Signaling Technology, Inc., Beverly, USA) and phospho-Erk1/Erk2 (Cell Signaling Technology, Inc., Beverly, USA).
The binding of the antibodies to the MAP kinases on the nitrocellulose was detected by incubation with secondary goat-anti-rabbit-antibodies coupled to horse radish peroxidase (Jackson ImmunoResearch Laboratories, Soham, UK) and subsequent reaction with ECL reagents (Western Lightning™, PerkinElmer Life Sciences, Inc. Boston, USA) and X-ray film exposure (X-OMAT™, Kodak GmbH, Stuttgart, Germany). […]

The test system is the same in assay [3]. The assay can be described thus: HGF/SF phosphorylation assay (NCI-H661). It is filed as cell-based, human. The settings on record: NCI-H661 cells (N58S in SHP2/PTPN11), HGF/SF stimulation, dose dependant. How it is done: Typically, human tumor cells (e.g. NCI-H661) were seeded at 0.25×10E6 cells/ml (1 ml/well) in a 6 well microtiter plate in RPMI/10% FBS and incubated over night at 37° C./5% CO2. Medium is exchanged against RPMI/1% FBS plus 5, 10 or 20 μM (final concentration) compound, and the cells were incubated for 20 h at 37° C./5% CO2. Medium was exchanged against RPMI (without serum) plus 5, 10 or 20 μM compound (final DMSO concentration less than 1%), and the cells were incubated for 4 h at 37° C./5% CO2. Medium was exchanged against DMEM (without serum) plus 5, 10 or 20 μM compound (final DMSO concentration less than 1%) plus 10 ng/ml HGF/SF, and the cells were incubated for 4 h at 37° C./5% CO2. […] Proteins on the blot were analyzed by antibodies against p42/p44 MAP kinase (Erk1/Erk2) (Cell Signaling Technology, Inc., Beverly, USA) and phospho-Erk1/Erk2 (Cell Signaling, Technology, Inc., Beverly, USA). The binding of the antibodies to the MAP kinases on the nitrocellulose was detected by incubation with secondary goat-anti-rabbit-antibodies coupled to horse radish peroxidase (Jackson ImmunoResearch Laboratories, Soham, UK) and subsequent reaction with ECL reagents (Western Lightning™, PerkinElmer Life Sciences, Inc. Boston, USA) and X-ray film exposure (X-OMAT™, Kodak GmbH, Stuttgart, Germany).

Sequence of Met (P08581 25-1390): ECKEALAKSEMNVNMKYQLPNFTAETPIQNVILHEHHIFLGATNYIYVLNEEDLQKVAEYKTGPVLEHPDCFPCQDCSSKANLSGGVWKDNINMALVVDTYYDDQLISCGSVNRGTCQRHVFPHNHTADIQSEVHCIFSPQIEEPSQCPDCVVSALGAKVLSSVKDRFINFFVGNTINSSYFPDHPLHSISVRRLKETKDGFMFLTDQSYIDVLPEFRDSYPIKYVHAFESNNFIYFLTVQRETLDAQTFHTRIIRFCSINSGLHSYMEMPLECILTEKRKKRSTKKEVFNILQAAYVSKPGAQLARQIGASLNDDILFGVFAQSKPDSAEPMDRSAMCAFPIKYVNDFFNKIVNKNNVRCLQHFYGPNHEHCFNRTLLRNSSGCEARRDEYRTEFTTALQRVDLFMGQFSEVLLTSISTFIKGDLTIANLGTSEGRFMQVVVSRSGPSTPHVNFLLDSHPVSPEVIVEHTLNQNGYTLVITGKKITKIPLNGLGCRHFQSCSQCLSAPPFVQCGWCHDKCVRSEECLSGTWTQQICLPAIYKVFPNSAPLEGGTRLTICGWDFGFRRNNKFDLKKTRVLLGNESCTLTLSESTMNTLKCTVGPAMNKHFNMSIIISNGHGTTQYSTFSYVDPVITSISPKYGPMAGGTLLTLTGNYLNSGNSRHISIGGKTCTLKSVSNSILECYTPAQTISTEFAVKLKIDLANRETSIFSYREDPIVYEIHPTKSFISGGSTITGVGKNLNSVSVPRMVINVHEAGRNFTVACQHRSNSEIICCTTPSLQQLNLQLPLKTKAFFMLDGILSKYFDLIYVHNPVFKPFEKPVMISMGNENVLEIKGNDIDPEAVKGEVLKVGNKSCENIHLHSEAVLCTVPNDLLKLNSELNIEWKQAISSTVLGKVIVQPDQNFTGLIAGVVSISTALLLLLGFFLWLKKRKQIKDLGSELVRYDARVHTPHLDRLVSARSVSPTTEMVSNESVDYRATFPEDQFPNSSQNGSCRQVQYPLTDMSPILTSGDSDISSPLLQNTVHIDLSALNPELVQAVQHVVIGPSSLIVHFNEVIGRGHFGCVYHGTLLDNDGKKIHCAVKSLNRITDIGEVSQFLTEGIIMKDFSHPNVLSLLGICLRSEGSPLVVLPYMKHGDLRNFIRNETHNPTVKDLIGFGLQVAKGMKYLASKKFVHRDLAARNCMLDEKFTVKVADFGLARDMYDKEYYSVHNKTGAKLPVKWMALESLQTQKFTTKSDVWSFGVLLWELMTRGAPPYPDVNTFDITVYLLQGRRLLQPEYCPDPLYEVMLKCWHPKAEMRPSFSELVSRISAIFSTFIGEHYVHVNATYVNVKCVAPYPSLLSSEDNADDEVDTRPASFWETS

With `COC(=O)[C@@]1(O)C[C@H]2O[C@]1(C)n1c3ccccc3c3c4c(c5c6ccccc6n2c5c31)C(=O)NC4` [Compound K252a], in the assay on HGF induced scattering, the HGF induced scattering entry was “inhibits”. The “antitumor activity in vivo” value in assay [1] is recorded as “no antitumor activity”. For the same compound, the Met autophosphorylation result at Met is given as “inhibits”.
For `O=C1/C(=N\Nc2ccc(S(=O)(=O)O)cc2)C(c2ccc([N+](=O)[O-])cc2)=NN1c1ccccc1` [II-1, 4-(2-(3-(4-nitrophenyl)-5-oxo-1-phenyl-1,5-dihydro-4H-pyrazol-4-ylidene)hydrazino)-benzenesulfonic acid], the “sustained MAP kinase phosphorylation (P-Erk1/Erk1)” value in assay [2] was “inhibited”. Further, in assay [3], the “sustained MAP kinase phosphorylation” value was “inhibited”.
